Where “and” joins values, the source holds several entries; their conditions need not be identical. Equal values may be shown once.
Experiments:
[1] = target: T1, full-length BTK protein (Homo sapiens, UniProt Q06187); test: BTK binding assay (Kd, Eurofins DiscoverX); conditions: for Kd: full-length BTK, duplicates
T1 construct: Kd was measured using the full-length BTK protein by Eurofins DiscoverX; T7 phage fusion or DNA tag for qPCR (generic vendor protocol); purchased Eurofins DiscoverX
Method: The dissociation equilibrium constant Kd was measured using the full-length BTK protein by Eurofins DiscoverX according to the following protocol: kinase-tagged T7 phage strains were prepared in an E. coli host derived from the BL21 strain. E. coli were grown to log-phase and infected with T7 phage and incubated with shaking at 32 °C until lysis. The lysates were centrifuged and filtered to remove cell debris. The remaining kinases were produced in HEK-293 cells and subsequently tagged with DNA for qPCR detection. […] The liganded beads were blocked with excess biotin and washed with blocking buffer (SeaBlock (Pierce), 1% BSA, 0.05% Tween 20, 1 mM DTT) to remove unbound ligand and to reduce non-specific binding. […] Test compounds were prepared as 111X stocks in 100% DMSO. […] The compounds were then diluted directly into the assays such that the final concentration of DMSO was 0.9%. All reactions performed in polypropylene 384-well plate. Each was a final volume of 0.02 mL. […] The kinase concentration in the eluates was measured by qPCR. For kinase-binding constant determination, an 11-point 3-fold serial dilution of each test compound was prepared in 100% DMSO at 100x final test concentration and subsequently diluted to 1x in the assay (final DMSO concentration = 1%). […] Binding constants (Kd values) were calculated with a standard dose-response curve using the Hill equation: Response=Background+Signal−Background/1+KdHillSlope/Dose^HillSlope
The Hill Slope was set to −1. Curves were fitted using a non-linear least square fit with the Levenberg-Marquardt algorithm.

[2] = system: MOLM-14 cells; test: Quantitative multiplexed (TMT) proteomics of compound-treated cells; assay type: cell-based, Homo sapiens; conditions: 200 nM, 24 h
Method: For proteomic study of the cellular protein profile following BTK degradation, MOLM-14 cells were treated in duplicate with 200 nM of RC-1, RNC-1, IRC-1, or RC-1-Me for 24 h, and then the cells were collected and processed for proteomics analysis (Sanford Burnham Prebys Medical Discovery Institute, La Jolla, California).
For cell lysis and protein digestion, cells were lysed with vigorous shaking (20 Hz for 10 min at room temperature by Retsch MM301 instrument) in 0.5 mL of lysis buffer (8 M urea, 50 mM ammonium bicarbonate (ABC); plus Benzonase 24U/100 ml), and extracted proteins were centrifuged at 14,000 × g for 10 min to remove cellular debris. Supernatant protein concentration was determined using a bicinchoninic acid (BCA) protein assay. Following quantification, the proteins were digested in solution. First, protein disulfide bonds were reduced with 5 mM tris(2-carboxyethyl)phosphine (TCEP) at 30 °C for 60 min, alkylated (carbamidomethylated) with 15 mM iodoacetamide (IAA) in the dark at room temperature for 30 min. Urea was then diluted to 1 M urea using 50 mM ammonium bicarbonate, and proteins were subjected to overnight digestion with mass spec grade Trypsin/Lys-C mix. Following digestion, samples were acidified with formic acid (FA) and subsequently desalted using Waters Sep-Pak C18. Cartridges were sequentially conditioned with 100% acetonitrile (ACN) and 0.1% FA, samples were then loaded, washed with 0.1% FA, and peptides eluted with 60% ACN, 0.1% FA. Finally, the organic solvent was removed in a SpeedVac concentrator prior to LC-MS/MS analysis.
Prior to TMT labeling, sample peptide amount was quantified using a NanoDrop^TM spectrophotometer (ThermoFisher). Samples were labeled according to the table schematic shown below using our TMT protocol. Briefly, a normalized amount of peptides sample was resuspended in 200 mM HEPES pH 8, and then labeled with one of the TMT10-plex reagents for 1 h at room temperature. TMT labels/channels were as follows:
Reactions were quenched with 5% hydroxylamine solution. The 10 samples were then combined, dried down in a SpeedVac system, resuspended in 0.1% FA, and desalted as described above. After desalting, the organic solvent was removed in a SpeedVac concentrator.
Dried samples were reconstituted in 20 mM ammonium formate pH ~10, and fractionated by high pH reverse phase using a Waters Acquity CSH C18 2.1-µm 1 × 150 mm column mounted on an M-Class Ultra Performance Liquid Chromatography (UPLC) system (Waters corp., Milford, MA). […] A total of 36 fractions were collected and pooled in a non-contiguous manner into 18 total fractions: 1 + 19, 2 + 20, 3 + 21, 4 + 22, 5 + 23, 6 + 24, 7 + 25, 8 + 26, 9 + 27, 10 + 28, 11 + 29, 12 + 30, 13 + 31, 14 + 32, 15 + 33, 16 + 34, 17 + 35, and 18 + 36. Pooled fractions were dried to completeness in a SpeedVac concentrator.
Dried fractions were reconstituted with 2% ACN-0.1% FA and analyzed by LC-MS/MS using a nanoACQUITY system (Waters) coupled to an Orbitrap Fusion Lumos mass spectrometer (Thermo Fisher Scientific). […] The mass spectrometer was operated in positive data-dependent acquisition mode. MS1 spectra were measured in the Orbitrap with a resolution of 60,000 (AGC target: 4e5; maximum injection time: 50 ms; mass range: from 350 to 1500 m/z). The instrument was set to run in top speed mode with 3 s cycles for the survey and the MS/MS scans. After a survey scan, tandem MS was performed in the Ion Routing Multipole HCD-Cell on the most abundant precursors by isolating them in the quadrupole (Isolation window: 0.7 m/z; charge state: +2–7; collision energy: 35%). […] The dynamic exclusion was set to 20 s with a 10-ppm mass tolerance around the precursor and its isotopes.
For data analysis, all mass spectra were analyzed with MaxQuant software version 1.5.5.1. MS/MS spectra were searched against the Homo sapiens Uniprot protein sequence database (version January 2018) and GPM cRAP sequences (commonly known protein contaminants). […]

[3] = system: Mino; test: IC50 in MCL cell lines (Supplementary Table 2), Mino; conditions: for Cell Viability (%): Mino cells, replicate wells; for IC50: Mino, triplicates
[4] = BTK_+DTT, compound concentration 0.00491 nM
[5] = BTK_+DTT, compound concentration 0.0147 nM
[6] = BTK_+DTT, compound concentration 0.0442 nM
[7] = BTK_+DTT, compound concentration 0.133 nM
[8] = BTK_+DTT, compound concentration 0.398 nM
[9] = BTK_+DTT, compound concentration 1.19 nM
[10] = BTK_+DTT, compound concentration 3.58 nM
[11] = BTK_+DTT, compound concentration 10.7 nM
[12] = BTK_+DTT, compound concentration 32.2 nM
[13] = BTK_+DTT, compound concentration 96.7 nM
[14] = BTK_+DTT, compound concentration 290 nM
[15] = BTK_-DTT, compound concentration 0.0152 nM
[16] = BTK_-DTT, compound concentration 0.0457 nM
[17] = BTK_-DTT, compound concentration 0.137 nM
[18] = BTK_-DTT, compound concentration 0.412 nM
[19] = BTK_-DTT, compound concentration 1.23 nM
[20] = BTK_-DTT, compound concentration 3.7 nM
[21] = BTK_-DTT, compound concentration 11.1 nM
[22] = BTK_-DTT, compound concentration 33.3 nM
[23] = BTK_-DTT, compound concentration 100 nM
[24] = BTK_-DTT, compound concentration 300 nM

T1 sequence (Q06187 whole entry, the tested form may be a part): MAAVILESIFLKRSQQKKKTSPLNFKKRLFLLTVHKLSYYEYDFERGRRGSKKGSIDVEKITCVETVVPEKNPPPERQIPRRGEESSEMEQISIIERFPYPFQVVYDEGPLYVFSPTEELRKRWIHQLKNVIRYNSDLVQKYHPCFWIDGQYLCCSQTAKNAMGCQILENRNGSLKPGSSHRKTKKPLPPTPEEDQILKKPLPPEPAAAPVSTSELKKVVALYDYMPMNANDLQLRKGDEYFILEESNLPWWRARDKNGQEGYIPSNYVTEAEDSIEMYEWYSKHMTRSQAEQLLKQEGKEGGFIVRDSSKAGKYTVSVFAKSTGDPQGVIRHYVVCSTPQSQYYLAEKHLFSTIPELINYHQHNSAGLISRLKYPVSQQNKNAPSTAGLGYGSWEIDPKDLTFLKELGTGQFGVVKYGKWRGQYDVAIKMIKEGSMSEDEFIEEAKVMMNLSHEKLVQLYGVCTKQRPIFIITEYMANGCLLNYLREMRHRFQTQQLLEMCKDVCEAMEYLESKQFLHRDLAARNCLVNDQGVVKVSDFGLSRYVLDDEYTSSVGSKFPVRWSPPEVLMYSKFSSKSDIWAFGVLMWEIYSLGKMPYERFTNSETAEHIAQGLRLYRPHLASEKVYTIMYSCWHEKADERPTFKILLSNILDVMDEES

Signal [1, 4]	Signal [1, 5]	Signal [1, 6]	Signal [1, 7]	Signal [1, 8]	Signal [1, 9]	Signal [1, 10]	Signal [1, 11]	Signal [1, 12]	Signal [1, 13]	Signal [1, 14]	Signal [1, 15]	Signal [1, 16]	Signal [1, 17]	Signal [1, 18]	Signal [1, 19]	Signal [1, 20]	Signal [1, 21]	Signal [1, 22]	SMILES	kinases degraded (proteomics) [2]	also measured
2.11E-05 and 2.14E-05	1.62E-05 and 1.97E-05	2.15E-05 and 2.03E-05	2.11E-05 and 2.33E-05	1.86E-05 and 1.95E-05	1.43E-05 and 1.52E-05	1.06E-05 and 1.08E-05	5.42E-06 and 5.34E-06	1.75E-06 and 1.73E-06	3.47E-07 and 3.72E-07	8.87E-08 and 9.98E-08	1.52E-05 and 1.19E-05	1.62E-05 and 1.68E-05	1.78E-05 and 1.76E-05	1.29E-05 and 1.60E-05	1.07E-05 and 1.11E-05	7.15E-06 and 6.34E-06	3.52E-06 and 2.70E-06	1.15E-06	CN(CC=CC(=O)N1CCCC(n2nc(-c3ccc(Oc4ccccc4)cc3)c3c(N)ncnc32)C1)CCCNC(=O)CNc1cccc2c1C(=O)N(C1CCC(=O)NC1=O)C2=O (stereo not drawn) [IRC-1]	7	Signal [1, 23]: 3.02E-07 and 3.08E-07; Signal [1, 24]: 1.03E-07 and 9.31E-08; Kd ([1]; absence of DTT in the buffer): 3 nM; degradation of IMiD-dependent substrates IKZF1, ZFP91, ZNF692 [2]: specifically degraded
																			CN1C(=O)CCC(N2C(=O)c3cccc(NCC(=O)NCCCN(C)C(C)(C)C=C(C#N)C(=O)N4CCCC(n5nc(-c6ccc(Oc7ccccc7)cc6)c6c(N)ncnc65)C4)c3C2=O)C1=O (stereo not drawn) [RC-1-Me]	no degradation is observed	Cell Viability (%) ([3]; 1.25E-06 M): 62.8357% and 58.5114% and 61.2528%; Cell Viability (%) ([3]; 1.56E-07 M): 87.7372% and 87.5805% and 85.7829%; Cell Viability (%) ([3]; 2.50E-06 M): 55.4376% and 54.2347% and 53.6197%; Cell Viability (%) ([3]; 3.13E-07 M): 79.9575% and 76.1954% and 74.7404%; Cell Viability (%) ([3]; 5.00E-06 M): 43.6522% and 45.138% and 46.9951%; Cell Viability (%) ([3]; 6.25E-07 M): 66.0951% and 69.0683% and 66.9419%; Cell Viability (%) ([3]; 7.81E-08 M): 88.6147% and 85.2411% and 92.7295%; IC50 [3]: 3300 nM
2.09E-05 and 2.12E-05	2.23E-05 and 2.05E-05	2.23E-05 and 2.20E-05	2.05E-05	2.13E-05 and 2.22E-05	1.80E-05 and 1.97E-05	1.78E-05 and 1.71E-05	1.50E-05 and 1.39E-05	7.62E-06 and 7.96E-06	2.20E-06 and 2.08E-06	4.82E-07 and 5.26E-07	1.69E-05 and 1.12E-05	1.66E-05 and 1.75E-05	1.87E-05 and 1.52E-05	1.34E-05 and 1.41E-05	1.48E-05 and 1.35E-05	1.31E-05 and 1.42E-05	6.46E-06 and 6.66E-06	2.78E-06 and 2.85E-06	CC(C)(C)C=C(C#N)C(=O)N1CCCC(n2nc(-c3ccc(Oc4ccccc4)cc3)c3c(N)ncnc32)C1 (stereo not drawn) [RC-Ctrl]		Signal [1, 23]: 8.37E-07 and 7.44E-07; Signal [1, 24]: 2.56E-07 and 2.49E-07; Kd ([1]; absence of DTT in the buffer): 9.1 nM; Cell Viability (%) ([3]; 1.25E-06 M): 64.9212% and 67.7956% and 65.2142%; Cell Viability (%) ([3]; 1.56E-07 M): 72.1676% and 75.0045% and 70.0395%; Cell Viability (%) ([3]; 2.50E-06 M): 62.0161% and 61.5033% and 61.0381%; Cell Viability (%) ([3]; 3.13E-07 M): 62.4012% and 64.8258% and 70.1741%; Cell Viability (%) ([3]; 5.00E-06 M): 55.6234% and 57.3306% and 56.4139%; Cell Viability (%) ([3]; 6.25E-07 M): 64.669% and 69.1433% and 66.0679%; Cell Viability (%) ([3]; 7.81E-08 M): 69.6595% and 74.2003% and 68.2948%; IC50 [3]: > 5000 nM
													2.06E-05						CN(CCCNC(=O)CNc1cccc2c1C(=O)N(C1CCC(=O)NC1=O)C2=O)CCCC(=O)N1CCCC(n2nc(-c3ccc(Oc4ccccc4)cc3)c3c(N)ncnc32)C1 (stereo not drawn) [RNC-1]	7	Signal ([1]; BTK_+DTT, compound concentration 0.0457 nM): 1.67E-05 and 2.04E-05; Signal ([1]; BTK_+DTT, compound concentration 0.137 nM): 2.07E-05; Signal ([1]; BTK_+DTT, compound concentration 0.412 nM): 1.78E-05 and 1.97E-05; Signal ([1]; BTK_+DTT, compound concentration 1.23 nM): 1.66E-05 and 1.94E-05; Signal ([1]; BTK_+DTT, compound concentration 3.7 nM): 9.43E-06 and 1.17E-05; Signal ([1]; BTK_+DTT, compound concentration 11.1 nM): 5.40E-06 and 5.82E-06; Signal ([1]; BTK_+DTT, compound concentration 33.3 nM): 1.59E-06 and 1.81E-06; Signal ([1]; BTK_+DTT, compound concentration 100 nM): 4.37E-07 and 5.02E-07; Signal ([1]; BTK_+DTT, compound concentration 300 nM): 2.01E-07 and 2.30E-07; Signal ([1]; BTK_+DTT, compound concentration 900 nM): 1.47E-07 and 2.72E-07; Signal ([1]; BTK_+DTT, compound concentration 2700 nM): 1.45E-07 and 2.02E-07; Kd ([1]; standard assay buffer in the presence of DTT (6 mM) (DiMe compounds: BTK_+DTT per Supplementary Data 1)): 4.7 nM; degradation of IMiD-dependent substrates IKZF1, ZFP91, ZNF692 [2]: specifically degraded

Reference: PMC7450057, “Enhancing intracellular accumulation and target engagement of PROTACs with reversible covalent chemistry” (Nature Communications, 2020)
